# Measurements as given in patent publication US9833425B2, “Gentisic acid is used to improve systemic hemodynamics, hepatic mitochondrial function and lactate acidemia in patients with septic shock” (priority 2015, dated 2017).
# “Also recorded” adds a separate entry of the source. Like-named read-outs stand apart in the source and are kept apart here. Marks after values point to notes of the source that are not given here.
# How the values were obtained:
# [1] = system: canine model of septic shock (Pseudomonas aeruginosa); details: for Systemic vascular resistance: mean (SD in the cell below); for ALT (alanine transaminase) / AST (aspartate transaminase) / Arterial pH / CK (creatine kinase) / Cardiac output / LD (lactate dehydrogenase) / Lactate / Mean arterial pressure / Oxygen delivery / Pulmonary wedge pressure / Stroke work index / Troponin / Heart Rates: mean ± SD; for effect of treatment on mean arterial pressure (MAP): infusion started at septic shock condition, 3 hr and 5 hr post treatment; for effect of treatment on blood lactate concentration: over the course of the study; for effect of treatment on heart rate (HR): 3 hrs and 5 hrs posttreatment vs other septic groups
# Protocol: We used a bacteremic model of Pseudomonas aeruginosa in this study as previously described (20). We used this particular model, since we wanted to measure mitochondrial function and LA under conditions of an acute and intensive inflammatory response analogous to that which would occur in a severe bout of SS in the clinical condition. […] Over the course of the experiment, we studied the animals (18 to 26 kg) while anesthetized with sufentanil citrate (0.05-0.3 ug/kg/min) and midazolam (5 ug/kg/min), and while being ventilated receiving 100% oxygen to maintain arterial around PO2 ˜400 mmHg. We adjusted the ventilator rate over the course of the study to attenuate the development of the metabolic acidosis that is usually observed (20).
# To assess hemodynamics in this model, we inserted vascular catheters under sterile conditions as previously described (20), after which we connected the catheters to pressure transducers (Cobe, Argon) that were referenced relative to the left atrium and connected to a chart recorder (Astro-Med, W Warwick, R.I.). To measure MAP, we inserted a polyethylene catheter into the right femoral artery, while to measure pulmonary vascular pressures, we inserted a Swanz-Ganz catheter (Edwards Lifesciences, Irvine, Calif.) by percutaneous techniques through the right jugular vein. From the Swanz-Ganz catheter, we obtained measurements of pulmonary arterial pressure (Ppa), wedge pressure (Pwp), and right atrial pressure (Rap), as well as determinations of thermodilution cardiac output (CO).
# From the hemodynamic measurements, we calculated SV from CO/heart rates (HR), stroke work (SW) from [SV*(MAP−Pwp)], and systemic vascular resistance (SVR) from [(MAP-Rap)/CO)*80]. We also normalized measurements of SV, SW, and CO and organ oxygen delivery (DO2) to body weight. We calculated DO2 from CO×Hb×1.34 ml oxygen per gram of Hb, since Hb was 100% saturated at a PO2 of ˜400 mmHg. From the arterial catheter and distal port of the Swanz-Ganz catheter, we also took arterial and mixed venous blood samples, respectively, for analyses of PO2, PCO2, and pH.
# In addition, we placed another polyethylene catheter into the left jugular vein, also by percutaneous techniques, for infusion of the bacteria and intravenous fluids and for obtaining blood chemistry and hematological samples. Since the baseline Pwp found in this model usually averages≈8-10 mmHg, we infused normal saline solution as necessary to maintain Pwp relatively constant over the duration of this study. […] The Clinical Chemistry Laboratory at the Health Sciences Centre performed the clinical laboratory tests.
# We included 5 groups of animals in the initial phase of this study. These groups included a septic control group, a non-septic control group, a norepinephrine (NE) septic group, a gentisic acid sodium salt (GSS) septic group, and a GSS non-septic group. In each group, we made baseline measurements of hemodynamics and blood parameters after approximately 1 hr period of stability. In the septic groups, after initiation of the bacterial infusion, we repeated the measurements in the septic shock condition. […] In the septic control group, after the SS condition, we started an infusion of 5% dextrose in water (D5W) at approximately 40 ml/hr for the remainder of the study, since D5W was the diluent for both the NE and GSS treatments.
# In all groups, we then made posttreatment measurements at 3 hrs and 5 hrs after completion of the septic shock/sham-shock determinations.
# In this supplemental study, we examined the effect of gallic acid on hemodynamics and mitochondrial function in our Pseudomonas aeruginosa model in a manner identical to that described for GSS treatment.
# [2] = system: mitochondrial complex IV (cytochrome c oxidase); experiment: Enzymatic activity of hepatic mitochondrial complex IV; format: biochemical, dog; details: hepatic mitochondria of treated septic dogs; mean ± SD
# Description: As part of our assessment of mitochondrial function, we also measured the enzymatic activity of hepatic mitochondrial complex IV based on the rationale of Levy et al (10), since these investigators considered that dysfunction of complex IV was the most important determinant of abnormal mitochondrial function in SS. We determined complex IV activity spectrophotometrically by a temperature-controlled Ultrospec™ 2100 ultraviolet-visible spectrophotometer (Biopharmacia Biotech, Uppsala, Sweden) (17). Complex IV activity was measured at 25° C. by monitoring the absorbance decrease of reduced cytochrome c at 550 nm.
# [3] = pH in unbuffered solution; format: physicochemical
# [4] = septic dogs, 3 hrs posttreatment
# [5] = septic dogs, 5 hrs posttreatment
# [6] = septic dogs, baseline (before bacteria/treatment)
# [7] = septic dogs, septic shock (before treatment)
# [8] = septic dogs, septic shock condition (before treatment)
# [9] = septic dogs, listed as gentisic, sodium salt
smiles,measurement,setting,value
"O=C(O)c1cc(O)c(O)c(O)c1 [gallic acid, 3,4,5 trihydroxybenzoic acid]",Systemic vascular resistance,"[1]; septic dogs, 3 hrs post treatment",1673 dynes S/cm^5
same,ALT (alanine transaminase),[1]; [4],187 ± 68*^+! IU
same,AST (aspartate transaminase),[1]; [4],324 ± 104*^+$ IU
same,Arterial pH,[1]; [4],7.17 ± .10*^+@$
same,CK (creatine kinase),[1]; [4],3832 ± 3896*^+ IU
same,Cardiac output,[1]; [4],120 ± 400 mL/min/kg
same,LD (lactate dehydrogenase),[1]; [4],415 ± 192*^+#@$^ IU
same,Lactate,[1]; [4],.8 ± .4^#! nunol/L
same,Mean arterial pressure,[1]; [4],71 ± 10^*%@!$ mmHg
same,Oxygen delivery,[1]; [4],26 ± 7 mL/min/kg
same,Pulmonary wedge pressure,[1]; [4],11.6 ± 2.6^+ mmHg
same,Stroke work index,[1]; [4],62 ± 28*^+ ml mmHg/Kg
same,Troponin,[1]; [4],41 ± 92 ng/L
same,Systemic vascular resistance,"[1]; septic dogs, 5 hrs post treatment",1478 dynes S/cm^5
same,ALT (alanine transaminase),[1]; [5],189 ± 66*^+#! IU
same,AST (aspartate transaminase),[1]; [5],363 ± 89*^+$ IU
same,Arterial pH,[1]; [5],7.12
same,CK (creatine kinase),[1]; [5],5065 IU
same,Cardiac output,[1]; [5],130 ± 40 mL/min/kg
same,LD (lactate dehydrogenase),[1]; [5],513 IU
same,Lactate,[1]; [5],.75 ± .35^#! nunol/L
same,Mean arterial pressure,[1]; [5],60 ± 5*^%@!$ mmHg
same,Oxygen delivery,[1]; [5],22 ± 3 mL/min/kg
same,Pulmonary wedge pressure,[1]; [5],11.3 ± 2.1^+ mmHg
same,Stroke work index,[1]; [5],49 ± 20*^+ ml mmHg/Kg
same,Troponin,[1]; [5],69 ± 157* ng/L
same,Systemic vascular resistance,[1]; [6],3566 dynes S/cm^5
same,ALT (alanine transaminase),[1]; [6],33 ± 16 IU
same,AST (aspartate transaminase),[1]; [6],19 ± 3 IU
same,Arterial pH,[1]; [6],7.40 ± .05
same,CK (creatine kinase),[1]; [6],104 ± 35 IU
same,Cardiac output,[1]; [6],113 ± 20 mL/min/kg
same,Heart Rates,[1]; [6],49 ± 3
same,LD (lactate dehydrogenase),[1]; [6],36 ± 10 IU
same,Mean arterial pressure,[1]; [6],105 ± 14 mmHg
same,Oxygen delivery,[1]; [6],21 ± 6 mL/min/kg
same,Pulmonary wedge pressure,[1]; [6],11.3 ± 2.3 mmHg
same,Stroke work index,[1]; [6],212 ± 43 ml mmHg/Kg
same,Troponin,"[1]; septic dogs, baseline (before bacteria/treatment), index of myocardial injury",0 ± 3 ng/L
same,effect of treatment on mean arterial pressure (MAP),[1]; septic dogs,did not produce an increase in MAP
same,effect of treatment on blood lactate concentration,[1]; septic dogs,reduction in lactate at 3 hrs and 5 hrs posttreatment
same,ALT (alanine transaminase),[1]; [7],157 ± 61 IU
same,AST (aspartate transaminase),[1]; [7],241 ± 104*^+$ IU
same,Arterial pH,[1]; [7],7.25 ± .10*^+$
same,CK (creatine kinase),[1]; [7],2650 ± 3339 IU
same,LD (lactate dehydrogenase),[1]; [7],200 ± 98*^+$ IU
same,Systemic vascular resistance,[1]; [8],1257 dynes S/cm^5
same,Cardiac output,[1]; [8],150 ± 40 mL/min/kg
same,Heart Rates,[1]; [8],125 ± 28*^+
same,Mean arterial pressure,[1]; [8],64 ± 12*^+ mmHg
same,Oxygen delivery,[1]; [8],25 ± 6 mL/min/kg
same,Pulmonary wedge pressure,[1]; [8],10.4 ± 2.7^+ mmHg
same,Stroke work index,[1]; [8],72 ± 32*^+ ml mmHg/Kg
same,Troponin,[1]; [8],14 ± 15 ng/L
same,enzymatic activity of mitochondrial complex IV,[2],2.44±0.63 umol/min/mg protein
same,pH in unbuffered solution,[3],4.2
"O=C([O-])c1cc(O)ccc1O.[Na+] [GSS, 2,5-dihydroxybenzoic acid sodium salt]",time of infusion until systemic blood pressure reached the baseline value,[1]; one dog of the gentisic septic group (FIG. 4),approximately 20 minutes
same,"arterial pH at the end of the study, compared among groups",[1]; septic dogs,higher
same,effect of treatment on stroke work index,"[1]; septic dogs, 3 hr and 5 hr vs septic control group, did not reach statistical significance",an increase in stroke work index
same,effect of treatment on heart rate (HR),[1]; [9],significant decrease in HR
same,effect of treatment on heart rate (HR),"[1]; septic dogs, sodium salt",heart rates were lower
same,effect of treatment on systemic vascular resistance (SVR),"[1]; septic dogs, 3 hrs and 5 hrs posttreatment vs septic shock condition, sodium salt",increased SVR back to the baseline value; also recorded: an increase in SVR
same,ALT (alanine transaminase),[1]; [4],209 ± 158*^+! IU
same,AST (aspartate transaminase),[1]; [4],235 ± 167*^+$ IU
same,Arterial pH,[1]; [4],7.24 ± .08*^+$^
same,CK (creatine kinase),[1]; [4],1847 ± 1763^! IU
same,Oxygen delivery,[1]; [4],20 ± 7 mL/min/kg
same,ALT (alanine transaminase),[1]; [5],225 ± 171*^+ IU
same,AST (aspartate transaminase),[1]; [5],279 ± 208*^+!$ IU
same,Arterial pH,[1]; [5],7.20 ± 0.06*^+#$^
same,CK (creatine kinase),[1]; [5],2857 ± 2527*^!^ IU
same,Oxygen delivery,[1]; [5],20 ± 19 mL/min/kg
same,ALT (alanine transaminase),[1]; [6],51 ± 29 IU
same,AST (aspartate transaminase),[1]; [6],29 ± 31 IU
same,Arterial pH,[1]; [6],7.38 ± .03
same,CK (creatine kinase),[1]; [6],117 ± 106 IU
same,Oxygen delivery,[1]; [6],18 ± 3 mL/min/kg
same,effect of treatment on mean arterial pressure (MAP),"[1]; septic dogs, sodium salt",increased MAP back to the baseline value; also recorded: return in MAP to baseline
same,effect of treatment on blood lactate concentration,[1]; [9],did not increase and even tended to decrease slightly
same,effect of treatment on blood lactate concentration,"[1]; septic dogs, sodium salt",did not change
same,ALT (alanine transaminase),[1]; [7],161 ± 132 IU
same,AST (aspartate transaminase),[1]; [7],143 ± 113 IU
same,Arterial pH,[1]; [7],7.26
same,CK (creatine kinase),[1]; [7],521 ± 750 IU
same,Oxygen delivery,[1]; [8],26 ± 6 mL/min/kg
same,enzymatic activity of mitochondrial complex IV,[2],3.68±0.59 umol/min/mg protein
same,pH in unbuffered solution,[3],8.2
